Experimental data published in patent US6458760B1, “Method for treating tissue damaged from ischemia” (Henry Ford Health System, priority 1998, dated 2002).
Residues, ends and D or L forms follow the SMILES beside them. *: point of attachment. Cbz = O=C(OCc1ccccc1)*; CHN2 = [N-]=[N+]=C*; Bn = c1ccc(C*)cc1

Key:
Calpain = Calpain inactivation rate, fluorimetric progress curves; type: biochemical; conditions: second order inactivation rate constant corrected for substrate; substrate Suc-Leu-Tyr-AMC; pH 7.5, 37° C.
Procedure: (“Tian, et al.”) the contents of which are incorporated by reference. More specifically, the value of kobs is given by the slope of a plot of ln [P]∞−[p]t versus t (time). The apparent second-order rate contact for inactivation, k2app was calculated as kobs/[I]. The inactivation-rates (kobs) in the presence of substrate and for different inhibitor concentrations for calpain, cathepsin B and cathepsin L are determined according to the method of Tian, et al. However, k2app is corrected for the presence of substrate (s) to give the second order rate constant k^12app, calculated as k^12app=k2app (1+[s]/Km).
Calpain was assayed fluorimetrically in 1 ml of 50 mM Tris/acetate buffer, pH 7.5, containing 5 mM CaCl2, 2.5 mM DTT(dithiothreitol), 0.1% Triton X-100 at 37° C., using 2.5×10^−4 M Suc-Leu-Tyr-aminomethylcoumarin (AMC) (Novabiochem, Switzerland) as substrate and 50nM (final concentration) of enzyme. The appearance of the 7-amino-4 methylcoumarin product was recorded continuously with a Perkin Elmer 650-10S spectrofluorimeter, a SPEX Fluorolog 1680, or SLM 8000C fluorescence spectrometer with excitation at 370 nm and emission at 460 nm.
Typically, 5 μL of the substrate solution (50 mM stock in DMSO) was added to 1 mL of buffer. Varying concentrations of the inhibitor solution (10 μL of a DMSO […] solution) were added, followed by 10 μL of calpain in the assay buffer. After allowing the reaction mixture to incubate for 2-5 min, during which time a steady baseline level of fluorescence was measured, calcium was added in a 10-μL volume to initiate hydrolysis of the fluorogenic substrate, and the resulting increase in fluorescence was monitored continuously. When inhibitors were tested at very low concentrations, the enzyme concentration was reduced to maintain a minimum of a 10-fold excess of inhibitor over enzyme.

[1] = Loss of body weight after MCA occlusion (Example 8); type: in vivo, rat
Procedure: The animal is able to move about and take water as needed. However, animals with severe stroke that are not able to maintain intake of water are supplemented with daily subcutaneous Lactated Ringers solution. Daily body weights are followed to assess nutritional status.
(§1) CP-1 dissolved in 1% DMSO and isotonic saline was given intravenously to Wistar rats (15 μl/min) at a concentration of 50 μM for four hours beginning at the end of three hours of MCA occlusion, in accordance with the protocol described hereinabove. Control animals underwent a similar protocol, but they had injected therein a 1% DMSO/Saline as the vehicle for four hours beginning at the end of a three hour MCA occlusion. All animals which survived 7 days were sacrificed and the infarct volume was measured 7 days after the MCA occlusion.
The % loss of body weight from CP-1 treated animals and the control group on Day 1 and Day 7 are tabulated hereinbelow.

[2] = test system: Wistar rats with MCA occlusion; test: Neurological function on four point scale (Bederson) after 3 h MCA occlusion; type: in vivo, rat
Procedure: as §1
On the first day and on the seventh day after occlusion, the neurological function was determined on a four point scale (0, 1, 2, 3,) as described in an article by Bederson, et al. in Stroke, 1986, 17:472-476, the contents of which are incorporated by reference.
The rats were placed on large sheet of soft, plastic coated paper (such as counter protection paper) which they could potentially firmly grip with their claws. The tail of the rats were held by hand, and gentle lateral pressure was applied behind the rat's shoulder until it was noticed that the forelimbs slid several inches. This maneuver was repeated several times in each direction. […] (These rats were severely dysfunctional).
These values are the mean score ±SEM of the results from treatment on control animals. P≦0.05 according to the Mann Whitney Rank Sum test.

[3] = test system: Wistar rats with MCA occlusion; test: Stroke model, 2 h MCA occlusion, i.v. infusion after reperfusion, infarct volume at 7 days; type: in vivo, rat; conditions: for % Hemisphere Infarct Volume (% ± SEM): 2 h MCA occlusion, day 7, control 37 ± 2.6
Procedure: Male Wistar rat weighing between 270-290 gm are fasted the night prior to surgery. Each rat was then anesthetized with 3.5% halothane, and spontaneously respired with 0.5% halothane in a 2:1 N2O:O2 mixture using a face mask. A normal range of blood gases and pH is maintained during ischemia and reperfusion with the face mask inhalation, as verified by samples taken from a femoral artery PE-50 catheter. Body temperature is maintained constant at 37° C. with a recirculating heating pad and K module with an intrarectal type T thermocouple. The PE-50 catheters are inserted into the femoral artery and vein following induction of anesthesia to obtain the blood gas, glucose and hemoglobin concentrations and to monitor blood pressure.
The right common carotid artery, external carotid artery and internal carotid artery are isolated using microsurgical techniques. A clamp is applied to the common carotid artery and a 4-0 nylon suture with a rounded tip is inserted into the external carotid artery through a small puncture. The clamp on the common carotid artery is removed. The suture is passed distally into the internal carotid artery until it blocks the middle cerebral artery. Two hours after the MCA occlusion, the animal is again anesthetized, and the nylon suture is removed from the internal carotid artery.
Infusion of the inhibitor or vehicle is done by intravenous infusion via the femoral vein.
Syringe pumps were filled under sterile conditions with either isotonic saline/1% DMSO solution as the control or with the concentration of CP-1 or CP-2 indicated in the examples, hereinbelow. The pumps delivered the solution at a rate of 15 μl/min for up to 4 hours.
After anesthesia had been induced in the rat, a catheter was inserted into the femoral vein and tunneled subcutaneously in the posterior neck region. Body temperature was maintained at a constant temperature of 37° C. during surgical procedures. The animals underwent 2 hours of MCA occlusion, and then reperfusion when the suture was withdrawn, and immediately thereafter, the drug was infused for four hours. The animals were killed after a 7-day reperfusion, and the brains were formalin fixed and sliced 6-μm thick into seven coronal sections A-G, and mounted on coated slides. After staining with hematoxylin and eosin, the stroke volume was measured using an image analysis program. The stroke area and the contralateral hemispheric area were calculated by tracing the areas on the computer screen, and the volumes were determined by multiplying the appropriate area by the section interval thickness. The stroke volume is expressed as the percentage of lesion size to the volume of contralateral hemisphere. Statistical analysis was performed using the independent t-test.
CP-1 dissolved in 1% DMSO and isotonic saline was given intravenously to Wistar rats (15 μl/min) at concentrations of 2 μM, 10μM, 50μM and 25μM for 4 hours immediately after reperfusion following two hours of MCA occlusion, in accordance with the procedure described hereinabove. Control animals underwent a similar protocol but they had injected therein 1% DMSO/Saline as the vehicle within four hours. All animals which survived 7 days were sacrificed and the stroke volume calculated. The results are tabulated hereinbelow:
The protocol described hereinabove was repeated with CP-2 used in lieu of CP-1, at doses of 10, 50, 250 and 500 μM.

SMILES: [N-]=[N+]=CC(=O)C(COCc1ccccc1)NC(=O)C(Cc1ccccc1)NC(=O)OCc1ccccc1 (stereo not drawn) [CP-1, benzyloxycarbonyl-Phe-Ser(OBz)-CHN2] (Cbz-Phe-Ser(Bn)-CHN2; configuration not given here)
- Calpain k′2app (Calpain): <10 M^−1S^−1
- % loss of body weight Day 1 ([1]; 50 μM i.v. 4 h, Example 8, control 19 ± 2.0): 16 ± 1.4%
- % loss of body weight Day 7 ([1]; 50 μM i.v. 4 h, Example 8, control 32 ± 3.0): 28 ± 3.4%
- loss of mean body weight, treated versus control ([1]; Day 1 and Day 7): no significant difference
- Functional Score Day 7 ([2]; 50 μM i.v. 4 h after 3 h MCA occlusion, scale 0-3, mean ± SEM, control 1.9 ± 0.3): 0.9 ± 0.2
- Functional Score Day 1 ([2]; 50 μM i.v. 4 h after 3 h MCA occlusion, scale 0-3, mean ± SEM, control 3 ± 0): 2.1 ± 0.6
- reducing the neurological deficits due to the occlusion ([2]; 50 μM, 3 hour MCA occlusion): effective in reducing the neurological deficits
- % Hemisphere Infarct Volume (% ± SEM) ([3]; 2 μM i.v. 15 μl/min for 4 h after reperfusion): 39 ± 2.1, p > 0.1%
- % Hemisphere Infarct Volume (% ± SEM) ([3]; 10 μM i.v. 15 μl/min for 4 h after reperfusion): 22 ± 4.7, p = 0.01%
- % Hemisphere Infarct Volume (% ± SEM) ([3]; 50 μM i.v. 15 μl/min for 4 h after reperfusion): 20 ± 4.1, p = 0.003%
- % Hemisphere Infarct Volume (% ± SEM) ([3]; 250 μM i.v. 15 μl/min for 4 h after reperfusion): 23 ± 5.2, p = 0.02%
- area of damage of the cerebral hemisphere ([3]; all doses except 2 μM, reduced from 37% in control): about 20%
